Experimental data reported in US7323465B2, “Alkansulfonamides as endothelin antagonists” (Actelion Pharmaceuticals Ltd., priority 2002, dated 2008).

Assays:
[1] = target: T1, human recombinant ETB receptors (Homo sapiens, UniProt P24530); assay: Inhibition of [125I]ET-1 binding to membranes from CHO cells carrying human ETB receptors
T1 construct: expressed in transfected cells; host or cells: CHO cells (microsomal membranes)
T1 sequence (P24530 27-442): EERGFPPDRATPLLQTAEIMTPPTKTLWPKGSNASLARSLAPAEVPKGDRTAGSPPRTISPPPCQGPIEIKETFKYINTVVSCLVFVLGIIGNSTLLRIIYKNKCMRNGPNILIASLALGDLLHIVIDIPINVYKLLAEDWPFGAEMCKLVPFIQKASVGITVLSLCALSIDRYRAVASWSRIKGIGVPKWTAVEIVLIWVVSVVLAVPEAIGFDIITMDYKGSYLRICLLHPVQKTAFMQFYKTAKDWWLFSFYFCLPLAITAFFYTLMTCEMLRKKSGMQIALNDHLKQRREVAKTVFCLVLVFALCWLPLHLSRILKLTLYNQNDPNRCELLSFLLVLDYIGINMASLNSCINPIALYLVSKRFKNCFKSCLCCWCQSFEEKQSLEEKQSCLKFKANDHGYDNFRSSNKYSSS
Description: (§1) 1) Inhibition of Endothelin Binding to Membranes from CHO Cells Carrying Human ET Receptors:
(§2) For competition binding studies, membranes of CHO cells expressing human recombinant ETA or ETB receptors were used.
(§3) The assay was performed in 200 uL 50 mM Tris/HCl buffer, pH 7.4, including 25 mM MnCl2, 1 mM EDTA and 0.5% (w/v) BSA in polypropylene microtiter plates. […] After 2 h, the membranes were filtered on filterplates containing GF/C filters (Unifilterplates from Canberra Packard S.A. Zürich, Switzerland). To each well, 50 uL of scintillation cocktail was added (MicroScint 20, Canberra Packard S.A. Zürich, Switzerland) and the filter plates counted in a microplate counter (TopCount, Canberra Packard S.A. Zürich, Switzerland).
(§4) All the test compounds were dissolved, diluted and added in DMSO.

[2] = target: T2, human recombinant ETA receptors (Homo sapiens, UniProt P25101); assay: Inhibition of [125I]ET-1 binding to membranes from CHO cells carrying human ETA receptors
T2 construct: expressed in transfected cells; host or cells: CHO cells (microsomal membranes)
T2 sequence (P25101 21-427): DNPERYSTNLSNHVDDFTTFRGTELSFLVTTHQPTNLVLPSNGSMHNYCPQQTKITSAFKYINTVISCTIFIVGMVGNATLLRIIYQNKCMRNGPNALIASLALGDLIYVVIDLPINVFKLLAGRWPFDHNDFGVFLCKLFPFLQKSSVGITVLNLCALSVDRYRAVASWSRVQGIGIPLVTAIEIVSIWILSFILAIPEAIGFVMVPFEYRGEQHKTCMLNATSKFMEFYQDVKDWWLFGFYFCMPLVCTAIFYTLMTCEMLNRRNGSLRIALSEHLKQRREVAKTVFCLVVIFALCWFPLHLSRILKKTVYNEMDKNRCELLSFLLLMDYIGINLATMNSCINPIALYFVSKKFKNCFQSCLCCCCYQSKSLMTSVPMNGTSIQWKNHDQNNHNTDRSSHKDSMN
Description: as §1, §2, §3, §4
Further: 2.5% DMSO.

Row | SMILES | IC50 [1] [nM] | IC50 [2] [nM]
1 | CCS(=O)(=O)Nc1ncnc(OCCOc2ncc(Br)cn2)c1-c1ccc(Br)cc1 [Example 58] | 838 | 0.66
2 | CCS(=O)(=O)Nc1ncnc(OCCOc2ncc(OC)cn2)c1-c1ccc(Br)cc1 [Example 59] | > 1000 | 6.8
3 | CCS(=O)(=O)Nc1ncnc(OCCOc2ncc(SC)cn2)c1-c1ccc(Br)cc1 [Example 60] | 427 | 0.8
4 | CCS(=O)(=O)Nc1ncnc(OCCOc2ncc(S(C)(=O)=O)cn2)c1-c1ccc(Br)cc1 [Example 61] | 271 | 1.1
5 | CCS(=O)(=O)Nc1nc(C2CC2)nc(OCCOc2ncc(Br)cn2)c1-c1ccc(C)cc1 [Example 62] | > 1000 | 5.5
6 | CCS(=O)(=O)Nc1nc(C2CC2)nc(OCCOc2ncc(OC)cn2)c1-c1ccc(C)cc1 [Example 63] | > 1000 | 25
7 | CCS(=O)(=O)Nc1nc(C2CC2)nc(OCCOc2ncc(SC)cn2)c1-c1ccc(C)cc1 [Example 64] | > 1000 | 3.5
8 | CCS(=O)(=O)Nc1nc(C2CC2)nc(OCCOc2ncc(S(C)(=O)=O)cn2)c1-c1ccc(C)cc1 [Example 65] | > 1000 | 1.4
9 | CCS(=O)(=O)Nc1ncnc(OCCOc2ncc(Br)cn2)c1-c1ccc(Cl)cc1 [Example 66] | > 1000 | 1.5
10 | CCS(=O)(=O)Nc1ncnc(OCCOc2ncc(OC)cn2)c1-c1ccc(Cl)cc1 [Example 67] | > 1000 | 13
11 | CCS(=O)(=O)Nc1ncnc(OCCOc2ncc(SC)cn2)c1-c1ccc(Cl)cc1 [Example 68] | 563 | 1.2
12 | CCS(=O)(=O)Nc1ncnc(OCCOc2ncc(S(C)(=O)=O)cn2)c1-c1ccc(Cl)cc1 [Example 69] | 314 | 1.2
13 | CCCS(=O)(=O)Nc1ncnc(OCCOc2ncc(OC)cn2)c1-c1ccc(Br)cc1 [Example 71] | > 1000 | 3.6
14 | CCCS(=O)(=O)Nc1ncnc(OCCOc2ncc(SC)cn2)c1-c1ccc(Br)cc1 [Example 72] | 936 | 0.6
15 | CCCS(=O)(=O)Nc1ncnc(OCCOc2ncc(S(C)(=O)=O)cn2)c1-c1ccc(Br)cc1 [Example 73] | 277 | 0.59
16 | CCCCS(=O)(=O)Nc1ncnc(OCCOc2ncc(Br)cn2)c1-c1ccc(C)cc1 [Example 74] | > 1000 | 0.63
17 | CCCCS(=O)(=O)Nc1ncnc(OCCOc2ncc(OC)cn2)c1-c1ccc(C)cc1 [Example 75] | > 1000 | 3.5
18 | CCCCS(=O)(=O)Nc1ncnc(OCCOc2ncc(SC)cn2)c1-c1ccc(C)cc1 [Example 76] | > 1000 | 1.1
19 | CCCCS(=O)(=O)Nc1nc(C2CC2)nc(OCCOc2ncc(Br)cn2)c1-c1ccc(C)cc1 [Example 77] | > 1000 | 2.3
20 | CCCCS(=O)(=O)Nc1nc(C2CC2)nc(OCCOc2ncc(OC)cn2)c1-c1ccc(C)cc1 [Example 78] | > 1000 | 10
21 | CCCCS(=O)(=O)Nc1nc(C2CC2)nc(OCCOc2ncc(SC)cn2)c1-c1ccc(C)cc1 [Example 79] | > 1000 | 2.1
22 | CCCCS(=O)(=O)Nc1nc(C2CC2)nc(OCCOc2ncc(S(C)(=O)=O)cn2)c1-c1ccc(C)cc1 [Example 80] | > 1000 | 1.5
23 | CCCCS(=O)(=O)Nc1ncnc(OCCOc2ncc(OC)cn2)c1-c1ccc(Br)cc1 [Example 82] | > 1000 | 1.27
24 | CCCCS(=O)(=O)Nc1ncnc(OCCOc2ncc(SC)cn2)c1-c1ccc(Br)cc1 [Example 83] | 640 | 0.49
25 | CCCCS(=O)(=O)Nc1ncnc(OCCOc2ncc(S(C)(=O)=O)cn2)c1-c1ccc(Br)cc1 [Example 84] | 118 | 0.56
